Test results from ChEMBL document CHEMBL5291721, “A preclinical secondary pharmacology resource illuminates target-adverse drug reaction associations of marketed drugs” (Nat Commun, 2023).

How the values were obtained:
Acetylcholinesterase = Acetylcholinesterase (Homo sapiens, UniProt P22303); format: functional
[1] = target: T1, Alpha-1A adrenergic receptor (Homo sapiens, UniProt P35348); format: functional, cell-based
T1 sequence (P35348 whole entry): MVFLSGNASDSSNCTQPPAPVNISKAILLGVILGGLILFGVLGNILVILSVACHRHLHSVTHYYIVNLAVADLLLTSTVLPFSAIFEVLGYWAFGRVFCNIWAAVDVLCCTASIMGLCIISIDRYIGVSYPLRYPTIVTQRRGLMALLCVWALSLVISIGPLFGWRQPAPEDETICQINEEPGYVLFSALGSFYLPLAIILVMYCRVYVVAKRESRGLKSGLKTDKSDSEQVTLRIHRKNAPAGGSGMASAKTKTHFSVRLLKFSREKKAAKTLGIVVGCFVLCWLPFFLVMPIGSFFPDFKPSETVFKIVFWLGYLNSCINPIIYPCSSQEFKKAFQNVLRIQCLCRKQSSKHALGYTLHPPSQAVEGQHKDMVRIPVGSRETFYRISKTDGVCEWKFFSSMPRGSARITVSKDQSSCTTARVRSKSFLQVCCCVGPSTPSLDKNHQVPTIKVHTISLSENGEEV

[2] = target: T1, Alpha-1A adrenergic receptor; format: functional, cell-based; remark: listed apart in the source
D(1A) dopamine receptor = D(1A) dopamine receptor (Homo sapiens, UniProt P21728)
D(1A) dopamine receptor, sequence (P21728 whole entry): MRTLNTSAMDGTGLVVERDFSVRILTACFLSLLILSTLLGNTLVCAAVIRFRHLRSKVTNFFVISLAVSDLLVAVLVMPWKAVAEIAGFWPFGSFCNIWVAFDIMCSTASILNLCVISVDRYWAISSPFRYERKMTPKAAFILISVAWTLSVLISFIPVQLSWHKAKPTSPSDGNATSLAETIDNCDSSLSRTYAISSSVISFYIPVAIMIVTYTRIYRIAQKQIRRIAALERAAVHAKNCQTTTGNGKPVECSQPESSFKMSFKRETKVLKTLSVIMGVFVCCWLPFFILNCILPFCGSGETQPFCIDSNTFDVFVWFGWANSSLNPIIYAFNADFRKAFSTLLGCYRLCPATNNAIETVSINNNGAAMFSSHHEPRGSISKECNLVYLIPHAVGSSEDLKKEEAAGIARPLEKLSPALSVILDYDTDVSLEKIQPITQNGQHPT

D(3) dopamine receptor = D(3) dopamine receptor (Homo sapiens, UniProt P35462)
D(3) dopamine receptor, sequence (P35462 whole entry): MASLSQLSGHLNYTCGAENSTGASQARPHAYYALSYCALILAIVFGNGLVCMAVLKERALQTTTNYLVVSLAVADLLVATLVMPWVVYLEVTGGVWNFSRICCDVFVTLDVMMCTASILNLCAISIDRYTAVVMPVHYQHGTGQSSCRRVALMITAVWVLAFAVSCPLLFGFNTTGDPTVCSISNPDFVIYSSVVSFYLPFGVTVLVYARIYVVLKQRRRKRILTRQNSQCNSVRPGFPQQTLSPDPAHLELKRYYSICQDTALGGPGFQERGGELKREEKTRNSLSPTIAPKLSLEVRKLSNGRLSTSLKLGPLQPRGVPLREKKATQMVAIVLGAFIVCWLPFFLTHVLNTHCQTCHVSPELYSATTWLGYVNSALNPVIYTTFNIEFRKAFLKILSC

Estrogen receptor = target: T2, Estrogen receptor (Homo sapiens, UniProt P03372)
T2 sequence (P03372 whole entry): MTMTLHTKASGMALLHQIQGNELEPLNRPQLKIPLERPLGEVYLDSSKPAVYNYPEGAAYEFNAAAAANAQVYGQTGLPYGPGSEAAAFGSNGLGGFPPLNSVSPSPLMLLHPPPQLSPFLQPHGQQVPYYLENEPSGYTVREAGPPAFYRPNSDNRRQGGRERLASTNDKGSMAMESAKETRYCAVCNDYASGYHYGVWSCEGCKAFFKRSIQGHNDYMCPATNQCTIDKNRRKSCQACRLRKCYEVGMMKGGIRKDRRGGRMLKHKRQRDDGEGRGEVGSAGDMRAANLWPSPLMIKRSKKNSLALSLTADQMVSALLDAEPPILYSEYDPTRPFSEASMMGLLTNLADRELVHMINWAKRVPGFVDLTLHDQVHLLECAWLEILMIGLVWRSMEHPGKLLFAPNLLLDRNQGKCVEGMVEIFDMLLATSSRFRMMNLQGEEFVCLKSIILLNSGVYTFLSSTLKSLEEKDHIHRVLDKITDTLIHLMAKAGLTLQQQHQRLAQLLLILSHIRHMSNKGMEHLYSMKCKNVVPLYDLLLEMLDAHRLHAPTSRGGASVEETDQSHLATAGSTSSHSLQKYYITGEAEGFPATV

[3] = target: Gamma-aminobutyric acid receptor subunit alpha-1 (Rattus norvegicus, UniProt P62813)
Gamma-aminobutyric acid receptor subunit alpha-1, sequence (P62813 whole entry): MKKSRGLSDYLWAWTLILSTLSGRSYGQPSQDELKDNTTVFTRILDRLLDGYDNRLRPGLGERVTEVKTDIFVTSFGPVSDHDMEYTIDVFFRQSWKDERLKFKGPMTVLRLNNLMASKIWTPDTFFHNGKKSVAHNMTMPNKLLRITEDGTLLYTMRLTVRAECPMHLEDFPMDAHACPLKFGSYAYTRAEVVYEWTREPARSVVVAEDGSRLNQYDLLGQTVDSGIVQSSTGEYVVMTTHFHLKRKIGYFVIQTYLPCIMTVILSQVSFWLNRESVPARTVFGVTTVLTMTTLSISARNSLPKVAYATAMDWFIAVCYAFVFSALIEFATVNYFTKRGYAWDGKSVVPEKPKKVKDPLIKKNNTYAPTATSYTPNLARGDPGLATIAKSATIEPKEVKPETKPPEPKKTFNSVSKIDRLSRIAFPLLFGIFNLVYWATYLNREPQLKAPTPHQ

[4] = target: Voltage-gated inwardly rectifying potassium channel KCNH2 (Homo sapiens, UniProt Q12809); format: functional; conditions: read-out: AC50
Voltage-gated inwardly rectifying potassium channel KCNH2, sequence (Q12809 whole entry): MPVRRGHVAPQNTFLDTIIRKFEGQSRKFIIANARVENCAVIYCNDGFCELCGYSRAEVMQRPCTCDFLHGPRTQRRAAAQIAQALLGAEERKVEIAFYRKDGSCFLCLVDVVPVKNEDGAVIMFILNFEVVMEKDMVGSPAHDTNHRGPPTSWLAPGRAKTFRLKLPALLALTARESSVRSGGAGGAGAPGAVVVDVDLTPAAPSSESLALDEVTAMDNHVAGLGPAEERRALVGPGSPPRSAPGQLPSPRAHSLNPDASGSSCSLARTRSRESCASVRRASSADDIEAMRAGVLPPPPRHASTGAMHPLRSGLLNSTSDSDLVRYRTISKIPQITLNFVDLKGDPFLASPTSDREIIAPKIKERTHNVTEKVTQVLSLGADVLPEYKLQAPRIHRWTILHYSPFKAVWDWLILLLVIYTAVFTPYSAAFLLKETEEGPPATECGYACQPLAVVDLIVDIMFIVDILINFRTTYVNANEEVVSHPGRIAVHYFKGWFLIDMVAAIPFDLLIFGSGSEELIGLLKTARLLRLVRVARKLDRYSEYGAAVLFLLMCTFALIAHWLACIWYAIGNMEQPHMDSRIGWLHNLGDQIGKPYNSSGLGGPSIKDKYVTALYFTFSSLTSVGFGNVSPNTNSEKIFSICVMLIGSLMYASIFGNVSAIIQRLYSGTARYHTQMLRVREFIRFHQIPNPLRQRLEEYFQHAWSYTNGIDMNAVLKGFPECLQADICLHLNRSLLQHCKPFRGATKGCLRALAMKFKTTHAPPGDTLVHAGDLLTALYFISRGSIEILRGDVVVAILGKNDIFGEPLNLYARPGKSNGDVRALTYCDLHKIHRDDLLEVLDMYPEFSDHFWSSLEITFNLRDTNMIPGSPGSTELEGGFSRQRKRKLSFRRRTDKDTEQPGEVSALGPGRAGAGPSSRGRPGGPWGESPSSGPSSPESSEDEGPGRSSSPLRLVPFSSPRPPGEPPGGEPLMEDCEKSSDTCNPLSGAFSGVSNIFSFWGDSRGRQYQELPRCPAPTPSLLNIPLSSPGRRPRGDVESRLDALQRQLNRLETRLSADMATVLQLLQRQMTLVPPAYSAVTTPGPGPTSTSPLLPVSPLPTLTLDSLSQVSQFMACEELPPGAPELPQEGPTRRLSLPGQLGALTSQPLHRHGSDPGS

[5] = target: T3, Amine oxidase [flavin-containing] A (Homo sapiens, UniProt P21397); format: functional
T3 sequence (P21397 whole entry): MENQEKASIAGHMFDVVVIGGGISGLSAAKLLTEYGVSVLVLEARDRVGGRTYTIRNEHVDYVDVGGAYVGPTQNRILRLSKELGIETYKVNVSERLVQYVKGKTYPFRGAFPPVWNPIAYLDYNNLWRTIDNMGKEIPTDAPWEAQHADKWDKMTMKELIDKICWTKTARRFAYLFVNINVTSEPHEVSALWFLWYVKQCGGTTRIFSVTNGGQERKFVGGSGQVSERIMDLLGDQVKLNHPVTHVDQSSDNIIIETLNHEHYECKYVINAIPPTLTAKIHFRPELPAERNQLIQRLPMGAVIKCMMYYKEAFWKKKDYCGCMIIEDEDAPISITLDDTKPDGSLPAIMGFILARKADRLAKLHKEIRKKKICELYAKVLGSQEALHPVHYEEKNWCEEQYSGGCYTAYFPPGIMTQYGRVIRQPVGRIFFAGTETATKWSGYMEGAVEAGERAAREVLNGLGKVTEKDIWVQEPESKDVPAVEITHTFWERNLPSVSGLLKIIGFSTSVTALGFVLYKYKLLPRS

Mu-type opioid receptor = Mu-type opioid receptor (Homo sapiens, UniProt P35372)
[6] = target: Prostaglandin G/H synthase 1 (Homo sapiens, UniProt P23219); format: functional
Prostaglandin G/H synthase 1, sequence (P23219 whole entry): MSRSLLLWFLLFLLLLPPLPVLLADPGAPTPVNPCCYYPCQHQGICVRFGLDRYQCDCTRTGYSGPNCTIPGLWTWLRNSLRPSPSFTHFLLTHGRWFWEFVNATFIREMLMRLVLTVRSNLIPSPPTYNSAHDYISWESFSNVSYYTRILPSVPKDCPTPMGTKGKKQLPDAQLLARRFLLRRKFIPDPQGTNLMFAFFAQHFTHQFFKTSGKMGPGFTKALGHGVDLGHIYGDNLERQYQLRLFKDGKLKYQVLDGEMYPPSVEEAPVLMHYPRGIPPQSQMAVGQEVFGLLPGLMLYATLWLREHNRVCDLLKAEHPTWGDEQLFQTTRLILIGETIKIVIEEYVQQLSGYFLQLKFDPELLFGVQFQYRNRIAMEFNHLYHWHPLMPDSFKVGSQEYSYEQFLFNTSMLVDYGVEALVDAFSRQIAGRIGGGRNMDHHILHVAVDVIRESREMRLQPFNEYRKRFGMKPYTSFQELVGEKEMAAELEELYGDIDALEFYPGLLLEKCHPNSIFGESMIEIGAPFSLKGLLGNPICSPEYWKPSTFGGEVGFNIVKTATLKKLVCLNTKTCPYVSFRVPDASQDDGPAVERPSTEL

[7] = target: Sodium-dependent noradrenaline transporter (Homo sapiens, UniProt P23975)
Sodium-dependent noradrenaline transporter, sequence (P23975 whole entry): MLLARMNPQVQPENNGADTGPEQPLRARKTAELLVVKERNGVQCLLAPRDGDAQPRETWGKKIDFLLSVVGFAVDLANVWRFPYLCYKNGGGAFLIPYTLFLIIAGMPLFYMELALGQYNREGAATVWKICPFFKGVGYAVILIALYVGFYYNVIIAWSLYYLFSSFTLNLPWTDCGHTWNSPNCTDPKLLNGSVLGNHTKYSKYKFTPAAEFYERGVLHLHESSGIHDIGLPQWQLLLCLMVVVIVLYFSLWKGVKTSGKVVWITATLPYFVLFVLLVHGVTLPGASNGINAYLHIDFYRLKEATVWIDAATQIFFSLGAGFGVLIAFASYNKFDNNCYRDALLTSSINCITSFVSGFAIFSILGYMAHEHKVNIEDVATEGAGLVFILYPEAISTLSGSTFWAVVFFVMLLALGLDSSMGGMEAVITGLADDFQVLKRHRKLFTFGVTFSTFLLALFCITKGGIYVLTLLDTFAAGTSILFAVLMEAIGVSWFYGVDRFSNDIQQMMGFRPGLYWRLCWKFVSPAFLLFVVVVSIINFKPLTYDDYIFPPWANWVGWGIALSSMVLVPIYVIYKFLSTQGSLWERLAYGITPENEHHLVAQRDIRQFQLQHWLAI

[8] = target: Sodium-dependent dopamine transporter (Homo sapiens, UniProt Q01959)
Sodium-dependent dopamine transporter, sequence (Q01959 whole entry): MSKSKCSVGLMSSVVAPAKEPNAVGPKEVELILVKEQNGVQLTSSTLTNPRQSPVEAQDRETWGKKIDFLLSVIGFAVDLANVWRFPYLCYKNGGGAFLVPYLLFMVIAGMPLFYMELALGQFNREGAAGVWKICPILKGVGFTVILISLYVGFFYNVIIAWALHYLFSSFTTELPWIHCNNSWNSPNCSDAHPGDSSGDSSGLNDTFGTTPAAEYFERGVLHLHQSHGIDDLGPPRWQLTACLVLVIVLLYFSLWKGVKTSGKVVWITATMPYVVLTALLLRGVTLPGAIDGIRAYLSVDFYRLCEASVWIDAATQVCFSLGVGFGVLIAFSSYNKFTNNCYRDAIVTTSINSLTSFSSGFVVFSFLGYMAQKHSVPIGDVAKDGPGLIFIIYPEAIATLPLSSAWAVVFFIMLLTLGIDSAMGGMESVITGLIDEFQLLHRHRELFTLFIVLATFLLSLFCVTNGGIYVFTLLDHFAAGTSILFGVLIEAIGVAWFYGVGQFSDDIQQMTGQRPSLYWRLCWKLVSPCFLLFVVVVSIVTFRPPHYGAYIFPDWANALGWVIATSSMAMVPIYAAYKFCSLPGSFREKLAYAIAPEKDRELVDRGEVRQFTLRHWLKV

[9] = target: Sodium-dependent serotonin transporter (Homo sapiens, UniProt P31645)
Thromboxane A2 receptor [10] = target: T4, Thromboxane A2 receptor (Homo sapiens, UniProt P21731); format: functional, cell-based
T4 sequence (P21731 whole entry): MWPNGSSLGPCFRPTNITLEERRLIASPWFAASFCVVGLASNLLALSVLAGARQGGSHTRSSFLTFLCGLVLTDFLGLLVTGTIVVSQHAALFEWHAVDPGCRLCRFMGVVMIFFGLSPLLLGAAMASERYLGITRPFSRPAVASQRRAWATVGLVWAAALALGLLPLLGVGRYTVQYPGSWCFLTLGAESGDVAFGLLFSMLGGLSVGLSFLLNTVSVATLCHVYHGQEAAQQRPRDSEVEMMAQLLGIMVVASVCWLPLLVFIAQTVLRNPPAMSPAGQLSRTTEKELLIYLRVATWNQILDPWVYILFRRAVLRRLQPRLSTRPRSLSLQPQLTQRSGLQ

Thromboxane A2 receptor [11] = target: T4, Thromboxane A2 receptor; format: functional, cell-based; remark: listed apart in the source
Note: assay procedure not described here.

Acetylcholinesterase, sequence (P22303 whole entry): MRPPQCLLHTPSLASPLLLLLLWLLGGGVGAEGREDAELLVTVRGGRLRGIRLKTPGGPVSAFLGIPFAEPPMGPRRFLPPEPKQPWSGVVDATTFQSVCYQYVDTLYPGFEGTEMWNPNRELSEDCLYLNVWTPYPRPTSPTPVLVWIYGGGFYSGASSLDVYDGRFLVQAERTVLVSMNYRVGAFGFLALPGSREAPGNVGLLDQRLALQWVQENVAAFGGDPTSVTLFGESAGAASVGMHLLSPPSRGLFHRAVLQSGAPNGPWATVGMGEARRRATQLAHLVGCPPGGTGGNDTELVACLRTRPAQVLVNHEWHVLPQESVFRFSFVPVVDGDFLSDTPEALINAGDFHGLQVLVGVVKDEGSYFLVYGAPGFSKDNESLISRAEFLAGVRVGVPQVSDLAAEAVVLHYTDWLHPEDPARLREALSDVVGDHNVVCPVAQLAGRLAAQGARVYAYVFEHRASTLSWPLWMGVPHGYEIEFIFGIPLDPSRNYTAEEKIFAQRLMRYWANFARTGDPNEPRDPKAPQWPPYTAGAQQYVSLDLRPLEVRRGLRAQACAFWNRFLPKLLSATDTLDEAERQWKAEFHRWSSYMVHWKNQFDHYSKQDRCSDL

Structure (SMILES) | AC50 (Acetylcholinesterase) | AC50 [1] | AC50 [2] | AC50 (D(1A) dopamine receptor) | AC50 (D(3) dopamine receptor) | AC50 (Estrogen receptor) | AC50 [3] | AC50 [4] | AC50 [5] | AC50 (Mu-type opioid receptor) | AC50 [6] | AC50 [7] | AC50 [8] | AC50 [9] | AC50 (Thromboxane A2 receptor [10]) | AC50 (Thromboxane A2 receptor [11])
CCCC[N+]1(C)[C@@H]2C[C@@H](OC(=O)[C@H](CO)c3ccccc3)C[C@H]1[C@@H]1O[C@@H]12 (some centres not stated) [BUTYLSCOPOLAMINE] | > 30 µM | > 30 µM | > 30 µM | > 30 µM | > 30 µM | > 30 µM | > 30 µM | 2.8 µM | > 30 µM | > 30 µM | > 30 µM | > 30 µM | > 30 µM | > 30 µM | > 30 µM | > 30 µM
CCOC(=O)CC(SP(=S)(OC)OC)C(=O)OCC (configuration not stated) [MALATHION] | > 30 µM | > 30 µM | > 30 µM | > 30 µM | > 30 µM | > 30 µM | > 30 µM | > 30 µM | > 30 µM | > 30 µM | > 30 µM | > 30 µM | > 30 µM | > 30 µM | > 30 µM | > 30 µM
CCC(Cc1c(I)cc(I)c(N)c1I)C(=O)O (configuration not stated) [IOPANOIC ACID] | > 30 µM | > 30 µM | 24.2 µM | > 30 µM | > 30 µM | > 30 µM | > 30 µM | > 30 µM | > 30 µM | > 30 µM | > 30 µM | > 30 µM | > 30 µM | > 30 µM | > 30 µM | 14.4 µM
Nc1nc(-n2cc(C(=O)O)c(=O)c3cc(F)c(N4CC(O)C4)c(Cl)c32)c(F)cc1F [DELAFLOXACIN] | > 30 µM | > 30 µM | > 30 µM | > 30 µM | > 30 µM | > 30 µM | > 30 µM | > 30 µM | > 30 µM | > 30 µM | > 30 µM | > 30 µM | > 30 µM | > 30 µM | > 30 µM | > 30 µM
O=C1NCC2(CCN(CCc3ccccc3)CC2)O1 [FENSPIRIDE] | > 30 µM | > 30 µM | > 30 µM | 20.8 µM | > 30 µM | > 30 µM | 25.2 µM | > 30 µM | > 30 µM | > 30 µM | > 30 µM | > 30 µM | > 30 µM | > 30 µM | > 30 µM | > 30 µM
O=C(O)CCCN1CCC(O[C@@H](c2ccc(Cl)cc2)c2ccccn2)CC1 [BEPOTASTINE] | > 30 µM | > 30 µM | > 30 µM | > 30 µM | > 30 µM | > 30 µM | > 30 µM | > 30 µM | > 30 µM | > 30 µM | > 30 µM | > 30 µM | > 30 µM | > 30 µM | > 30 µM | > 30 µM
O=C(O)CCn1c2c(c3ccccc31)C[C@H](NS(=O)(=O)c1ccc(F)cc1)CC2 [RAMATROBAN] | > 30 µM | > 30 µM | > 30 µM | > 30 µM | > 30 µM | > 10 µM | > 30 µM | > 30 µM | > 30 µM | > 30 µM | > 30 µM | > 30 µM | > 30 µM | > 30 µM | > 30 µM | 0.04 µM
O=C(NC1CCN(CCCCC2(C(=O)NCC(F)(F)F)c3ccccc3-c3ccccc32)CC1)c1ccccc1-c1ccc(C(F)(F)F)cc1 [LOMITAPIDE] | > 30 µM | > 30 µM | 2.4 µM | 1.49 µM | 1.76 µM | > 30 µM | > 30 µM | 0.86 µM | > 30 µM | 4.02 µM | 23.2 µM | 2.2 µM | 0.239 µM | > 30 µM | 8.46 µM | > 1 µM
Nc1ccc(C(=O)O)cc1 [AMINOBENZOIC ACID] | > 30 µM | > 30 µM | > 30 µM | > 30 µM | > 30 µM | > 30 µM | > 30 µM | > 30 µM | > 30 µM | > 30 µM | 4.69 µM | > 30 µM | > 30 µM | > 30 µM | > 30 µM | > 30 µM
NC(=O)c1cccc2cn(-c3ccc([C@@H]4CCCNC4)cc3)nc12 [NIRAPARIB] | > 30 µM | > 30 µM | > 30 µM | > 30 µM | > 30 µM | > 30 µM | > 30 µM | > 30 µM | > 30 µM | > 30 µM | > 30 µM | 1 µM | 0.113 µM | 1.17 µM | > 30 µM | > 30 µM
CCOC(=O)C(c1c(O)c2ccccc2oc1=O)c1c(O)c2ccccc2oc1=O [ETHYL BISCOUMACETATE] | > 30 µM | > 30 µM | > 30 µM | > 30 µM | > 30 µM | > 30 µM | > 30 µM | > 30 µM | > 30 µM | > 30 µM | > 30 µM | > 30 µM | > 30 µM | > 30 µM | > 30 µM | > 30 µM
Cc1nc(-c2ccc(OCC(C)C)c(C#N)c2)sc1C(=O)O [FEBUXOSTAT] | > 30 µM | > 30 µM | > 30 µM | > 30 µM | > 30 µM | > 30 µM | > 30 µM | > 30 µM | > 30 µM | > 30 µM | > 30 µM | > 30 µM | > 30 µM | > 30 µM | > 30 µM | > 30 µM
